The target of data set [1] is FR (folate receptor) on KB cells (Homo sapiens, UniProt P15328). Put plainly: Relative binding affinity: inhibition of 3H-folate binding to cultured KB cells. As to conditions: read-out: mean IC50 (relative binding affinity, block of 3H-folic acid binding), 10 nM 3H-folate, 1 h, 37 °C.
In data set [2] the test system is KB tumor xenografts (FR+). The data set is described as follows: Ex vivo biodistribution in nude mice bearing KB tumor xenografts. As to conditions: 120 min p.i., ± SEM.

FR (folate receptor) on KB cells, sequence (P15328 25-257): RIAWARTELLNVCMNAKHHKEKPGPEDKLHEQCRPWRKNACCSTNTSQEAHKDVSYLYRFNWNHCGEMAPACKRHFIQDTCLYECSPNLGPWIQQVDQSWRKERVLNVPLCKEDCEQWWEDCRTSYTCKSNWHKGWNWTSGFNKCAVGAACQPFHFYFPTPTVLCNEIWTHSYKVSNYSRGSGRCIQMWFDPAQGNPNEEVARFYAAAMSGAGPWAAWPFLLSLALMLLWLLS

On to `Nc1nc2ncc(CNc3ccc(C(=O)N[C@@H](CCC(=O)NCCOCCOCCNC(=O)CN4CCN(CC(=O)O)CCN(CC(=O)O)CC4)C(=O)O)cc3)nc2c(=O)[nH]1` [folate-NOTA], for which the IC50 – broadly, the point on the concentration scale where inhibition reaches its midpoint – in data set [1] is 18.7 nM.
With `[NH-][C@@H](CNC(=O)CC[C@@H](NC(=O)c1ccc(NCc2cnc3nc(N)[nH]c(=O)c3n2)cc1)C(=O)O)C(=O)[N-][C@@H](CC(=O)O)C(=O)[N-][C@@H](C[S-])C(=O)O.[O]=[Tc+4]` [^99mTc-EC20], in data set [2] (Control), the “Biodistribution: Blood” value was 0.3 ± 0.01 %ID/g, the “Biodistribution: Heart” value was determined as 1.9 ± 0.1 %ID/g, the “Biodistribution: KB Tumor” value is 10.9 ± 0.6 %ID/g and the “Biodistribution: Kidney” value amounted to 113.0 ± 3.6 %ID/g. Also, in data set [2] (Control), the “Biodistribution: Liver” value came to 4.1 ± 0.3 %ID/g, the “Biodistribution: Lung” value amounted to 2.1 ± 0.1 %ID/g, the “Biodistribution: Muscle” value was 1.2 ± 0.04 %ID/g and the “Biodistribution: Plasma” value is given as 0.5 ± 0.03 %ID/g. In addition, in data set [2] (Control), the “Biodistribution: Spleen” value was found to be 0.8 ± 0.1 %ID/g, the “KB Tumor/Blood ratio” value came out at 41.5 ± 2.2, the “KB Tumor/Kidney ratio” value turned out to be 0.1 ± 0.01 and the “KB Tumor/Liver ratio” value was found to be 3.1 ± 0.3. Also, in data set [2] (FA Block (100 μg folic acid)), the “Biodistribution: Blood” value is 0.3 ± 0.1 %ID/g, the “Biodistribution: Heart” value worked out at 0.1 ± 0.02 %ID/g, the “Biodistribution: KB Tumor” value was 0.9 ± 0.1 %ID/g and the “Biodistribution: Kidney” value was 6.7 ± 1.6 %ID/g. In data set [2] (FA Block (100 μg folic acid)), the “Biodistribution: Liver” value is given as 2.5 ± 0.5 %ID/g, the “Biodistribution: Lung” value stood at 0.8 ± 0.2 %ID/g, the “Biodistribution: Muscle” value was 0.1 ± 0.02 %ID/g and the “Biodistribution: Plasma” value is on record as 0.5 ± 0.1 %ID/g. In data set [2] (FA Block (100 μg folic acid)), the “Biodistribution: Spleen” value is 0.5 ± 0.2 %ID/g, the “KB Tumor/Blood ratio” value turned out to be 2.9 ± 0.4, the “KB Tumor/Kidney ratio” value is on record as 0.1 ± 0.02 and the “KB Tumor/Liver ratio” value worked out at 0.4 ± 0.1.

Values taken from article PMC5343510 (Molecular pharmaceutics, 2016).
